Literature values as cited in US8785427B2, “Enzymatic process for obtaining 17 alpha-monoesters of cortexolone and/or its 9,11-dehydroderivatives” (Cosmo Dermatos Srl, priority 2007, dated 2014).

Conditions: both in vitro and in vivo on the animal; described in EP1421099

| Structure (SMILES) | antiandrogenic biological activity |
| --- | --- |
| CCCC(=O)O[C@]1(C(=O)CO)CC[C@H]2[C@@H]3CCC4=CC(=O)CC[C@]4(C)C3=CC[C@@]21C [9,11-dehydro-cortexolone-17-α-butanoate, 9,11-Dehydro-Cortexolone-17α-Butanoate] | high antiandrogenic biological activity |
| CCC(=O)O[C@]1(C(=O)CO)CC[C@H]2[C@@H]3CCC4=CC(=O)CC[C@]4(C)[C@H]3CC[C@@]21C [cortexolone 17α-propionate] | high antiandrogenic biological activity |
